From patent US11584747B2, “Substituted pyridopyrimidinonyl compounds useful as T cell activators” (BRISTOL-MYERS SQUIBB COMPANY, priority 2019, dated 2023)
Read-outs that look alike come from different tables or passages of the source.

What was measured:
human DGKα = human DGKα (Homo sapiens (Human), UniProt P23743); test: DGKα ADPGLO assay (detergent/lipid micelle substrate); type: biochemical
Protocol: DGK Alpha ADPGLO (Truncated) IC50 (uM)
The detergent/lipid micelle was prepared by combining 15 g phosphatidylserine (Avanti 840035P) and 1 g diacylglycerol (8008110) and dissolving into 150 mL chloroform in a 2 L round bottom flask. Chloroform was removed under high vacuum by rotary evaporation. […] The lipid/detergent solution was split into 5 mL aliquots and stored at −80° C.

[1] = tested on: human venous whole blood (IFN-γ); test: Human whole blood IFN-γ assay; type: cell-based
Protocol: Human venous whole blood (22.5 μL per well), obtained from healthy donors, was pre-treated with compounds for one hour at 37° C. in a humidified 95% air/5% CO2 incubator. The blood was stimulated with 2.5 μL anti-human CD3 and anti-CD28 mAb at a final concentration of 1 μg/mL each for 24 hours at 37° C. IFN-γ in the supernatants was measured using AlphLISA kit (Cat #AL217).

human DGKζ = human DGKζ (Homo sapiens (Human), UniProt Q13574); test: DGKζ LIPGLO assay (extruded liposome substrate, ADP-Glo luminescence); type: biochemical
[2] = truncated DGK alpha, read-out: DGK alpha ADPGLO (Truncated) IC50
[3] = whole blood, normalized to 3 μM reference compound as 100% activation, read-out: IFN-γ Whole Blood Normalized EC50
[4] = liposome assay, read-out: DGK zeta LIPGLO IC50
[5] = Homo sapiens, whole blood, normalized to 3 μM reference compound as 100% activation, read-out: IFN-γ Whole Blood Normalized EC50
[6] = ADPGLO assay, read-out: DGK alpha ADPGLO IC50
[7] = human whole blood, anti-CD3 plus anti-CD28 stimulation, 24 hours, read-out: IFN-γ Whole Blood EC50
[8] = liposome (LIPGLO) assay, read-out: DGK zeta (liposome assay) IC50

Chain of human DGKζ (Q13574 other isoform, or with tags, fused parts or gaps): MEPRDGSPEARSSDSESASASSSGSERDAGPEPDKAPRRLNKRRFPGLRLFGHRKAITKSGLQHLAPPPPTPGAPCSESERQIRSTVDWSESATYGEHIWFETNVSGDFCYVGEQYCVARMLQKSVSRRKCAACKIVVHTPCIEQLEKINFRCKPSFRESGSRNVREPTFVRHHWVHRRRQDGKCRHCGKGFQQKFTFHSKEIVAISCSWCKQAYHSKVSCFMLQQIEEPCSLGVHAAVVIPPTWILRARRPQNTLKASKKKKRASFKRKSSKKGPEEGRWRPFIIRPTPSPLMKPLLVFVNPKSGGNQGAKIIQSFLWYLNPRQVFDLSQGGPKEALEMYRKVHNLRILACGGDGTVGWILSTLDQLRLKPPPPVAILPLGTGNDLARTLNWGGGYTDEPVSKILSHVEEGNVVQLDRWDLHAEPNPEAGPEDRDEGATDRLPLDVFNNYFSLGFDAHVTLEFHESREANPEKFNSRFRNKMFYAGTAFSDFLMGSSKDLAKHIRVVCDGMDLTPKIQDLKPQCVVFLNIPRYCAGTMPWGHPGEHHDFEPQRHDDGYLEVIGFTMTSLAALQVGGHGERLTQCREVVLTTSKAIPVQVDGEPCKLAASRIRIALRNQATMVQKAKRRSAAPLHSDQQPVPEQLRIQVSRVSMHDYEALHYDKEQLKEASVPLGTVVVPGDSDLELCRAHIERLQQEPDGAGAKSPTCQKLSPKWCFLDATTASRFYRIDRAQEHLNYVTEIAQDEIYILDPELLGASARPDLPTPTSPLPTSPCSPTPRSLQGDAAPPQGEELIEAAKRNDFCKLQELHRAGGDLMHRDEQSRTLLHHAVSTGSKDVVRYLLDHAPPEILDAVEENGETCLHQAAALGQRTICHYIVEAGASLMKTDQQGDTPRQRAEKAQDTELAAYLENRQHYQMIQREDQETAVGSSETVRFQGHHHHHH
Chain of human DGKα (P23743 whole entry, looked up, the tested form may be a part): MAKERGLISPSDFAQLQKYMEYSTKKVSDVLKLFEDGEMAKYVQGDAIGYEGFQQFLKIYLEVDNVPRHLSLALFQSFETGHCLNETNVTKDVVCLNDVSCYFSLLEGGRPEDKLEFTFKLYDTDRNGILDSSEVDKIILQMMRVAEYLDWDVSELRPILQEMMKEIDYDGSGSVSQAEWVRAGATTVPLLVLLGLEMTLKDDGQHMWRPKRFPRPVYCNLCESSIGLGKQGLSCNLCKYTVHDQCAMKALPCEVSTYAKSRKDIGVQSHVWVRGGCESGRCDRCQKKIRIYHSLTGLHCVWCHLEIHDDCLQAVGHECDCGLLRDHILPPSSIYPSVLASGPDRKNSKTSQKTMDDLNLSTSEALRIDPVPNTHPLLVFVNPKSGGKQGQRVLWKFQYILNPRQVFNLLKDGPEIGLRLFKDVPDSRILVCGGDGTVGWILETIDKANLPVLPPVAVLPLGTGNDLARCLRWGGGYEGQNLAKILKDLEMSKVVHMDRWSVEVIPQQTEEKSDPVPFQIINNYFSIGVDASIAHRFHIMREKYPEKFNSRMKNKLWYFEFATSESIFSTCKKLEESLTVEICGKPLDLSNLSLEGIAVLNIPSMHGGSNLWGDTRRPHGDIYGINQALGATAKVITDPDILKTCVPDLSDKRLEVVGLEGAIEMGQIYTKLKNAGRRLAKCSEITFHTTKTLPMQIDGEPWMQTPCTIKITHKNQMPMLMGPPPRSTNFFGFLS

## CC[C@H]1CN(C(C)c2ccc(CO)cc2)[C@H](CC)CN1c1nc(=O)n(C)c2ccc(C#N)nc12 (stereo partly drawn) [Example 270, 4-((2S,5R)-2,5-Diethyl-4-(1-(4-(hydroxymethyl)phenyl)ethyl)piperazin-1-yl)-1-methyl-2-oxo-1,2-dihydropyrido[3,2-d]pyrimidine-6-carbonitrile]
Human DGKα; [2]
  IC50: 0.008 µM
[1]; [3]
  EC50: 1.39 µM
Human DGKζ; [4]
  IC50: 2.32 µM

## CC[C@@H]1CN(c2nc(=O)n(C)c3ccc(C#N)nc23)[C@@H](CC)CN1Cc1ccc(C(F)(F)F)cc1 [Example 205, 4-((2S,5R)-2,5-diethyl-4-(4-(trifluoromethyl)benzyl)piperazin-1-yl)-1-methyl-2-oxo-1,2-dihydropyrido[3,2-d] pyrimidine-6-carbonitrile]
Human DGKα; [2]
  IC50: 0.061 µM
[1]; [5]
  EC50: 0.83 µM
Human DGKζ; [4]
  IC50: 3.74 µM

## CC[C@H]1CN(C(C)c2ccc(CN3CCN(C(C)=O)CC3)cc2)[C@H](CC)CN1c1nc(=O)n(C)c2ccc(C#N)nc12 (stereo partly drawn) [Example 284, 4-((2S,5R)-4-(1-(4-((4-acetylpiperazin-1-yl)methyl)phenyl)ethyl)-2,5-diethylpiperazin-1-yl)-1-methyl-2-oxo-1,2-dihydropyrido[3,2-d]pyrimidine-6-carbonitrile]
Human DGKα; [2]
  IC50: 3.17 µM
[1]; [3]
  EC50: 13 µM
Human DGKζ; [4]
  IC50: 25.1 µM

## CC(c1ccc(CN2CCOC(C)(C)C2)cc1)N1C[C@H](C)N(c2nc(=O)n(C)c3ccc(C#N)nc23)C[C@H]1C (single isomer, unassigned) [Example 386]
Human DGKα; [6]
  IC50: 2.7 µM
[1]; [7]
  EC50: 2.49 µM
Human DGKζ; [8]
  IC50: 5.07 µM

## CC[C@H]1CN(C(C)c2ccc(CN3CCC(F)(F)CC3)cc2)[C@H](CC)CN1c1nc(=O)n(C)c2ccc(C#N)nc12 (stereo partly drawn) [Example 278, 4-((2S,5R)-4-(1-(4-((4,4-difluoropiperidin-1-yl)methyl)phenyl)ethyl)-2,5-diethylpiperazin-1-yl)-1-methyl-2-oxo-1,2-dihydropyrido[3,2-d]pyrimidine-6-carbonitrile]
Human DGKα; [2]
  IC50: 2.86 µM
[1]; [5]
  EC50: 1.15 µM

## CCC(c1ccc(CN2CCOCC2)cc1)N1C[C@H](CC)N(c2nc(=O)n(C)c3ccc(C#N)nc23)C[C@H]1CC (stereo partly drawn) [Example 268, 4-((2S,5R)-2,5-diethyl-4-(1-(4-(morpholinomethyl)phenyl)propyl)piperazin-1-yl)-1-methyl-2-oxo-1,2-dihydropyrido[3,2-d]pyrimidine-6-carbonitrile]
Human DGKα; [2]
  IC50: 0.34 µM
[1]; [3]
  EC50: 1 µM
Human DGKζ; [4]
  IC50: 4.06 µM

## CC[C@H]1CN(C(C)c2ccc(C(=O)OC)cc2)[C@H](CC)CN1c1nc(=O)n(C)c2ccc(C#N)nc12 (stereo partly drawn) [Example 266, methyl 4-(1-((2R,5S)-4-(6-cyano-1-methyl-2-oxo-1,2-dihydropyrido[3,2-d]pyrimidin-4-yl)-2,5-diethylpiperazin-1-yl)ethyl)benzoate]
Human DGKα; [2]
  IC50: 0.083 µM
[1]; [3]
  EC50: 0.18 µM
Human DGKζ; [4]
  IC50: 0.028 µM

## CCC(c1ccc(C(F)(F)F)nc1)N1C[C@H](CC)N(c2nc(=O)n(C)c3ccc(C#N)nc23)C[C@H]1CC (stereo partly drawn) [Example 224, 4-((2S,5R)-2,5-diethyl-4-(1-(6-(trifluoromethyl)pyridin-3-yl)propyl)piperazin-1-yl)-1-methyl-2-oxo-1,2-dihydropyrido[3,2-d]pyrimidine-6-carbonitrile]
Human DGKα; [2]
  IC50: 0.081 µM
[1]; [3]
  EC50: 0.12 µM
Human DGKζ; [4]
  IC50: 0.14 µM

## CC(c1ccc(CN2C[C@@H]3C[C@H]2CO3)cc1)N1C[C@H](C)N(c2nc(=O)n(C)c3ccc(C#N)nc23)C[C@H]1C (stereo partly drawn) [Example 387, 4-((2S,5R)-4-(1-(4-(((1S,4S)-2-oxa-5-azabicyclo[2.2.1]heptan-5-yl)methyl)phenyl)ethyl)-2,5-dimethylpiperazin-1-yl)-1-methyl-2-oxo-1,2-dihydropyrido[3,2-d]pyrimidine-6-carbonitrile]
Human DGKα; [6]
  IC50: 1.93 µM
[1]; [7]
  EC50: 0.77 µM
Human DGKζ; [8]
  IC50: 6.07 µM

## CC[C@H]1CN(C(C)c2ccc(C(F)(F)F)cc2)[C@H](CC)CN1c1nc(=O)n(C)c2ccc(OCCOC)nc12 (stereo partly drawn) [Example 433, 4-((2S,5R)-2,5-diethyl-4-(1-(4-(trifluoromethyl)phenyl)ethyl)piperazin-1-yl)-6-(2-methoxyethoxy)-1-methylpyrido[3,2-d]pyrimidin-2(1H)-one]
Human DGKα; [6]
  IC50: 125 µM
[1]; Homo sapiens, 24 h, human whole blood, anti-CD3 plus anti-CD28 stimulation, 24 hours, read-out: IFN-γ Whole Blood EC50
  EC50: 20 µM
Human DGKζ; [8]
  IC50: 125 µM

## CCC(c1ccc(C(F)(F)F)nc1)N1C[C@H](CC)N(c2nc(=O)n(C)c3ccc(C#N)nc23)C[C@H]1CC (stereo partly drawn) [Example 225, 4-((2S,5R)-2,5-diethyl-4-(1-(6-(trifluoromethyl)pyridin-3-yl)propyl)piperazin-1-yl)-1-methyl-2-oxo-1,2-dihydropyrido[3,2-d]pyrimidine-6-carbonitrile]
Human DGKα; [2]
  IC50: 0.46 µM
[1]; [3]
  EC50: 0.61 µM
Human DGKζ; [4]
  IC50: 4.13 µM

## CCC(c1ccc(C(F)(F)F)cc1)N1C[C@H](CC)N(c2nc(=O)n(C)c3ccc(OC)nc23)C[C@H]1CC (stereo partly drawn) [Example 436, 4-((2S,5R)-2,5-diethyl-4-(1-(4-(trifluoromethyl)phenyl)propyl)piperazin-1-yl)-6-methoxy-1-methylpyrido[3,2-d]pyrimidin-2(1H)-one]
Human DGKα; [6]
  IC50: 12.2 µM
[1]; [7]
  EC50: 20 µM
Human DGKζ; [8]
  IC50: 250 µM

## CCCC(c1ccc(C(F)(F)F)cc1)N1C[C@H](CC)N(c2nc(=O)n(C)c3ccc(C#N)nc23)C[C@H]1CC (stereo partly drawn) [Example 243, 4-((2S,5R)-2,5-Diethyl-4-(1-(4-(trifluoromethyl)phenyl)butyl)piperazin-1-yl)-1-methyl-2-oxo-1,2-dihydropyrido[3,2-d]pyrimidine-6-carbonitrile]
Human DGKα; [2]
  IC50: 0.006 µM
[1]; [3]
  EC50: 0.059 µM

## CC[C@H]1CN(C(C)c2ccc(CN3CCCCC3)cc2)[C@H](CC)CN1c1nc(=O)n(C)c2ccc(C#N)nc12 (stereo partly drawn) [Example 281, 4-((2S,5R)-2,5-diethyl-4-(1-(4-(piperidin-1-ylmethyl)phenyl)ethyl)piperazin-1-yl)-1-methyl-2-oxo-1,2-dihydropyrido[3,2-d]pyrimidine-6-carbonitrile]
Human DGKα; [2]
  IC50: 7.17 µM
Human DGKζ; [4]
  IC50: 43.6 µM

## [2H]C([2H])([2H])n1c(=O)nc(N2C[C@@H](CC)N(C(C)c3ccc(C(F)(F)F)cc3)C[C@@H]2C)c2nc(C#N)ccc21 (single isomer, unassigned) [Example 420]
Human DGKα; [6]
  IC50: 0.09 µM
Human DGKζ; [8]
  IC50: 0.76 µM

## CC[C@H]1CN(C(C)c2ccc(CN3CCCCC3)cc2)[C@H](CC)CN1c1nc(=O)n(C)c2ccc(C#N)nc12 (stereo partly drawn) [Example 282, 4-((2S,5R)-2,5-diethyl-4-(1-(4-(piperidin-1-ylmethyl)phenyl)ethyl)piperazin-1-yl)-1-methyl-2-oxo-1,2-dihydropyrido[3,2-d]pyrimidine-6-carbonitrile]
Human DGKα; [2]
  IC50: 0.15 µM
Human DGKζ; [4]
  IC50: 1.16 µM

## CC[C@@H]1CN(c2nc(=O)n(C)c3ccc(C(F)F)nc23)[C@@H](C)CN1C(C)c1ccc(C(F)(F)F)cc1 (stereo partly drawn) [Example 442, 6-(difluoromethyl)-4-((2S,5R)-5-ethyl-2-methyl-4-(1-(4-(trifluoromethyl)phenyl)ethyl)piperazin-1-yl)-1-methylpyrido[3,2-d]pyrimidin-2(1H)-one]
Human DGKα; [6]
  IC50: 0.28 µM
Human DGKζ; [8]
  IC50: 0.91 µM

## CC[C@@H]1CN(c2nc(=O)n(C)c3ccc(C#N)nc23)[C@@H](CC)CN1CC1CCC(F)(F)CC1 [Example 269, 4-((2S,5R)-4-((4,4-difluorocyclohexyl)methyl)-2,5-diethylpiperazin-1-yl)-1-methyl-2-oxo-1,2-dihydropyrido[3,2-d]pyrimidine-6-carbonitrile]
Human DGKα; [2]
  IC50: 0.58 µM
Human DGKζ; [4]
  IC50: 0.26 µM

## CC[C@H]1CN(C(C)c2ccc(C3(C#N)CC3)cc2)[C@H](CC)CN1c1nc(=O)n(C)c2ccc(C#N)nc12 (stereo partly drawn) [Example 264, 4-((2S,5R)-4-(1-(4-(1-cyanocyclopropyl)phenyl)ethyl)-2,5-diethylpiperazin-1-yl)-1-methyl-2-oxo-1,2-dihydropyrido[3,2-d]pyrimidine-6-carbonitrile]
Human DGKα; [2]
  IC50: 0.75 µM
Human DGKζ; [4]
  IC50: 1.17 µM

## CC[C@@H]1CN(c2nc(=O)n(C)c3ccc(C#N)nc23)[C@@H](C)CN1C(C)c1ccc(CNC(=O)OC)cc1 (stereo partly drawn) [Example 360, Methyl (4-(1-((2R,5S)-4-(6-cyano-1-methyl-2-oxo-1,2-dihydropyrido[3,2-d]pyrimidin-4-yl)-2-ethyl-5-methylpiperazin-1-yl)ethyl)benzyl)carbamate]
Human DGKα; [6]
  IC50: 0.15 µM
Human DGKζ; [8]
  IC50: 0.66 µM

## CCC(C1CC1)N1C[C@H](C)N(c2nc(=O)n(C)c3ccc(C#N)nc23)C[C@H]1C (stereo partly drawn) [Example 454, 4-((2S,5R)-4-(1-cyclopropylpropyl)-2,5-dimethylpiperazin-1-yl)-1-methyl-2-oxo-1,2-dihydropyrido[3,2-d]pyrimidine-6-carbonitrile]
Human DGKα; [6]
  IC50: 14.2 µM
Human DGKζ; [8]
  IC50: 28.8 µM

## CC[C@H]1CN(C(C)c2ccc(CN3CCN(C)C(=O)C3)cc2)[C@H](CC)CN1c1nc(=O)n(C)c2ccc(C#N)nc12 (stereo partly drawn) [Example 288, 4-((2S,5R)-2,5-diethyl-4-(1-(4-((4-methyl-3-oxopiperazin-1-yl)methyl)phenyl)ethyl)piperazin-1-yl)-1-methyl-2-oxo-1,2-dihydropyrido[3,2-d]pyrimidine-6-carbonitrile]
Human DGKα; [2]
  IC50: 4.11 µM
Human DGKζ; [4]
  IC50: 31.7 µM
